target: recombinant human nicotinic acid receptor (NAR) (Homo sapiens, UniProt Q8TDS4); test: Nicotinic Acid Receptor Assay: inhibition of forskolin-stimulated cAMP accumulation in CHO cells (MesoScale Discovery cAMP kit); type: cell-based; details: CHO cells expressing recombinant human NAR; forskolin-stimulated cAMP; read-out: NA EC50 camp
Protocol: The nicotinic acid receptor agonist activity of the inventive compounds was determined by following the inhibition of forskolin-stimulated cAMP accumulation in cells using the MesoScale Discovery cAMP detection kit following the manufacture's protocol. Briefly, Chinese Hamster Ovary (CHO) cells expressing recombinant human nicotinic acid receptor (NAR) were harvested enzymatically, washed 1× in phosphate buffered saline (PBS) and resuspended in PBS containing 0.5 mM IBMX at 3×10^6 cells/mL. Ten μL of cell suspension was added to each well of a 384-well plate which contained 10 μL of test compounds. Test compounds were diluted with PBS containing 6 μM of forskolin. Plates were incubated for 30 minutes at room temperature after the addition of cells. Lysis buffer containing cAMP-Tag was added to each well (10 μL/well) as per the manufacturer's protocol. Plates were then incubated from 45 minutes to overnight. Prior to reading, 10 μL of read buffer was added to each well, and the plate was read in a Sector 6000 plate imager. The signal was converted to cAMP concentration using a standard curve run on each plate.

recombinant human nicotinic acid receptor (NAR), sequence (Q8TDS4 whole entry): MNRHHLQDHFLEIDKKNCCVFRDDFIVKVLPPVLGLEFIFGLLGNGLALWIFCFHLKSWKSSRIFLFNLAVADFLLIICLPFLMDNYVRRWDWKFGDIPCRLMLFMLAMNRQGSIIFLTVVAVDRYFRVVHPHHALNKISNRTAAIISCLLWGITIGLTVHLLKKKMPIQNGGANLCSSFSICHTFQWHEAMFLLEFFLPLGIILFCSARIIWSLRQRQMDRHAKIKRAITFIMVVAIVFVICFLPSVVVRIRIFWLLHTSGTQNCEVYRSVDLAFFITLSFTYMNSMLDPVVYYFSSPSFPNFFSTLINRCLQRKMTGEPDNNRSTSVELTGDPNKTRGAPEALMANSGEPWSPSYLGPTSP

Row | EC50 | Structure (SMILES)
1 | > 1000 nM | CCCCc1c(-c2ccc(C#N)cc2)c(=O)oc2[nH]c(=O)[nH]c(=O)c12 [Compound 709]
2 | 100 to 1000 nM | O=c1cc(CCC2CC2)c2c(=O)[nH]c(=O)n(C3CCC3)c2o1 [Compound 274]
3 | 0.001 to 100 nM | CCc1cc(=O)oc2nc(OCC#CC(O)CC)[nH]c(=O)c12 (stereo not shown) [Compound 671]
4 | 100 to 1000 nM | CCc1cc(=O)oc2nc(OCc3cc(Br)no3)[nH]c(=O)c12 [Compound 649]
5 | 100 to 1000 nM | CCc1cc(=O)oc2nc(OCc3cccc(N(C)C)c3)[nH]c(=O)c12 [Compound 619]
6 | 100 to 1000 nM | CCc1cc(=O)oc2nc(OCc3nccc4ccccc34)[nH]c(=O)c12 [Compound 528]
7 | > 1000 nM | N#Cc1cccc(Cc2cc(=O)oc3[nH]c(=O)[nH]c(=O)c23)c1 [Compound 231]
8 | 0.001 to 100 nM | CCc1cc(=O)oc2nc(OCc3ccncc3)[nH]c(=O)c12 [Compound 523]
9 | > 1000 nM | CCc1cc(=O)oc2nc(OCCN3CCCC3)[nH]c(=O)c12 [Compound 579]
10 | > 1000 nM | CCCC/C=C/c1c(CC)c2c(=O)[nH]c(=O)[nH]c2oc1=O [Compound 214]
11 | > 1000 nM | CCc1cc(=O)oc2nc(OCC3CCCCO3)[nH]c(=O)c12 (stereo not shown) [Compound 593]
12 | > 1000 nM | CCCCc1cc(=O)oc2nc(OCc3cc[n+]([O-])cc3)[nH]c(=O)c12 [Compound 681]
13 | > 1000 nM | CCCCc1c(-c2ccc(Cl)cc2)c(=O)oc2[nH]c(=O)[nH]c(=O)c12 [Compound 705]
14 | > 1000 nM | CCc1cc(=O)oc2nc(OCc3cccc(-n4cccc4)c3)[nH]c(=O)c12 [Compound 612]
15 | 100 to 1000 nM | CCc1cc(=O)oc2nc(OCc3cccc(-c4ccc(OC)nc4)c3)[nH]c(=O)c12 [Compound 562]
16 | 100 to 1000 nM | CCn1c(=O)[nH]c2oc(=O)cc(CCC3CC3)c2c1=O [Compound 278]
17 | 100 to 1000 nM | COCC#CCOc1nc2oc(=O)cc(Cc3ccc(F)cc3)c2c(=O)[nH]1 [Compound 661]
18 | 100 to 1000 nM | CC1CC1CCc1cc(=O)oc2[nH]c(=O)[nH]c(=O)c12 (stereo not shown) [Compound 295]
19 | > 1000 nM | CC(C)(C)OC(=O)N1CCC(Cc2cc(=O)oc3[nH]c(=O)[nH]c(=O)c23)CC1 [Compound 221]
20 | 100 to 1000 nM | CCc1cc(=O)oc2nc(OC[C@H]3CN([C@H](C)c4ccccc4)C(=O)O3)[nH]c(=O)c12 [Compound 613]
21 | 100 to 1000 nM | CCc1cc(=O)oc2nc(OCc3ccccc3-c3ccc(CO)cc3)[nH]c(=O)c12 [Compound 548]

Row | EC50 | Structure (SMILES)
22 | 100 to 1000 nM | CCc1cc(=O)oc2nc(OC(C)COC)[nH]c(=O)c12 (stereo not shown) [Compound 607]
23 | 100 to 1000 nM | CCc1cc(=O)oc2nc(OCc3cc(C)ccc3C)[nH]c(=O)c12 [Compound 539]
24 | > 1000 nM | CCc1cc(=O)oc2nc(OCCOC3CCCC3)[nH]c(=O)c12 [Compound 606]
25 | > 1000 nM | O=c1[nH]c(=O)c2c(Cc3cccc4ccccc34)cc(=O)oc2[nH]1 [Compound 265]
26 | > 1000 nM | CC#CCCc1cc(=O)oc2[nH]c(=O)[nH]c(=O)c12 [Compound 217]
27 | 100 to 1000 nM | CCc1cc(=O)oc2nc(OCc3cc(C)cc(C)c3)[nH]c(=O)c12 [Compound 505]
28 | > 1000 nM | CCc1cc(=O)oc2nc(OCC3CCCCN3C)[nH]c(=O)c12 (stereo not shown) [Compound 594]
29 | > 1000 nM | CCc1cc(=O)oc2nc(OCc3ccc(C(F)(F)F)cc3C(F)(F)F)[nH]c(=O)c12 [Compound 514]
30 | 100 to 1000 nM | CCc1cc(=O)oc2nc(OCCOc3cc(C(F)(F)F)ccn3)[nH]c(=O)c12 [Compound 602]
31 | > 1000 nM | CCC(C)(C)Cc1cc(=O)oc2[nH]c(=O)[nH]c(=O)c12 [Compound 204]
32 | > 1000 nM | CC(C)(C)CCc1cc(=O)oc2[nH]c(=O)[nH]c(=O)c12 [Compound 263]
33 | > 1000 nM | CCc1cc(=O)oc2nc(O[C@H](C)C#CC(=O)OCc3ccccc3)[nH]c(=O)c12 [Compound 635]
34 | 100 to 1000 nM | CCc1cc(=O)oc2nc(OCc3ccncc3Cl)[nH]c(=O)c12 [Compound 629]
35 | 100 to 1000 nM | CCc1cc(=O)oc2nc(OCCOc3ccccc3F)[nH]c(=O)c12 [Compound 614]
36 | 0.001 to 100 nM | C#CCCCCc1cc(=O)oc2[nH]c(=O)[nH]c(=O)c12 [Compound 226]
37 | > 1000 nM | CCn1c(=O)[nH]c(=O)c2c(CCC3CC3)cc(=O)oc21 [Compound 277]
38 | > 1000 nM | CCc1c(-c2ccccc2)c(=O)oc2[nH]c(=O)n(C3CCC3)c(=O)c12 [Compound 203]
39 | 100 to 1000 nM | O=c1cc(CCCCC2CC2)c2c(=O)n(C3CCC3)c(=O)[nH]c2o1 [Compound 200]
40 | > 1000 nM | CCC(CC)Cc1cc(=O)oc2[nH]c(=O)[nH]c(=O)c12 [Compound 267]
41 | 100 to 1000 nM | CCc1cc(=O)oc2nc(OCC#CCOC)[nH]c(=O)c12 [Compound 636]
42 | > 1000 nM | CC(C)CCc1cc(=O)oc2[nH]c(=O)n(CC3CC3)c(=O)c12 [Compound 260]

Row | EC50 | Structure (SMILES)
43 | 100 to 1000 nM | CCOC(=O)c1cccc(-c2ccccc2COc2nc3oc(=O)cc(CC)c3c(=O)[nH]2)c1 [Compound 547]
44 | 0.001 to 100 nM | CSCCCc1cc(=O)oc2[nH]c(=O)[nH]c(=O)c12 [Compound 225]
45 | 100 to 1000 nM | CCc1cc(=O)oc2nc(OCC(=O)N(CC)CC)[nH]c(=O)c12 [Compound 621]
46 | > 1000 nM | O=c1[nH]c(=O)c2c(CCCOc3ccccc3)cc(=O)oc2[nH]1 [Compound 208]
47 | 100 to 1000 nM | Cn1c(=O)[nH]c(=O)c2c(CCC3CC3)cc(=O)oc21 [Compound 275]
48 | 100 to 1000 nM | Cn1c(=O)[nH]c2oc(=O)cc(CCC3CC3)c2c1=O [Compound 276]
49 | 100 to 1000 nM | CCc1cc(=O)oc2nc(OCc3ocnc3C)[nH]c(=O)c12 [Compound 513]
50 | > 1000 nM | CCc1cc(=O)oc2nc(OCc3ccncc3NC(=O)C(C)(C)C)[nH]c(=O)c12 [Compound 659]
51 | > 1000 nM | CC1CCC(Cc2cc(=O)oc3[nH]c(=O)n(C4CCC4)c(=O)c23)CC1 (stereo not shown) [Compound 246]
52 | > 1000 nM | O=c1[nH]c(=O)c2c(CCC34CC5CC(CC(C5)C3)C4)cc(=O)oc2[nH]1 [Compound 215]
53 | > 1000 nM | CCc1cc(=O)oc2nc(OCc3ccccc3-c3cccc(C(=O)NC4CC4)c3)[nH]c(=O)c12 [Compound 553]
54 | 100 to 1000 nM | O=c1[nH]c(=O)c2c(CC3Cc4ccccc4C3)cc(=O)oc2[nH]1 [Compound 202]
55 | > 1000 nM | CCc1cc(=O)oc2nc(OC(C)c3ccccc3C(F)(F)F)[nH]c(=O)c12 (stereo not shown) [Compound 508]
56 | > 1000 nM | CCc1cc(=O)oc2nc(OCC3CCCO3)[nH]c(=O)c12 (stereo not shown) [Compound 601]
57 | 0.001 to 100 nM | CCOCCCc1cc(=O)oc2[nH]c(=O)[nH]c(=O)c12 [Compound 239]
58 | > 1000 nM | CCc1cc(=O)oc2nc(OCc3ccccc3-c3ccc(F)cc3)[nH]c(=O)c12 [Compound 510]
59 | 100 to 1000 nM | CCc1cc(=O)oc2nc(OCc3cnc(Br)s3)[nH]c(=O)c12 [Compound 608]
60 | > 1000 nM | CCOc1ccc(-c2c(CCC3CCC3)c3c(=O)[nH]c(=O)[nH]c3oc2=O)cc1 [Compound 703]
61 | > 1000 nM | CCc1cc(=O)oc2nc(OCc3cccc(-c4ccccc4)n3)[nH]c(=O)c12 [Compound 520]
62 | 0.001 to 100 nM | CCc1cc(=O)oc2nc(OCc3cc(Cl)ccc3OC)[nH]c(=O)c12 [Compound 507]

Row | Structure (SMILES) | EC50
63 | COCCCc1cc(=O)oc2[nH]c(=O)[nH]c(=O)c12 [Compound 209] | 100 to 1000 nM

same assay, conditions: NA EC50 camp (nM), CHO cells expressing recombinant human NAR; forskolin-stimulated cAMP

Row | Structure (SMILES) | EC50
64 | CCc1cc(=O)oc2nc(OCC#CCCO)[nH]c(=O)c12 [Compound 658] | 100 to 1000 nM
65 | CCc1cc(=O)oc2nc(OCCOC)[nH]c(=O)c12 [Compound 524] | 100 to 1000 nM
66 | CCc1cc(=O)oc2nc(OCc3ccccc3-c3cccc(C#N)c3)[nH]c(=O)c12 [Compound 509] | 100 to 1000 nM
67 | CCC#CCOc1nc2oc(=O)cc(Cc3ccccc3)c2c(=O)[nH]1 [Compound 615] | 100 to 1000 nM

same assay, conditions: inhibition of forskolin-stimulated cAMP accumulation, CHO cells expressing recombinant human NAR; read-out: NA EC50 camp

Row | EC50 | Structure (SMILES)
68 | 14.4 nM | O=c1[nH]c(=O)c2c(CCCCC(F)(F)F)cc(=O)oc2[nH]1 [Compound 112]
69 | 308 nM | CCCCc1cc(=O)oc2[nH]c(=O)n(CCF)c(=O)c12 [Compound 818]
70 | 183 nM | CCc1cc(=O)oc2nc(OCc3ccccc3F)[nH]c(=O)c12 [Compound 74]
71 | > 10000 nM | COCCn1c(=O)[nH]c(=O)c2c(CCC3CC3)cc(=O)oc21 [Compound 801]
72 | 40 nM | CCC(C)CCc1cc(=O)oc2nc(C(F)F)[nH]c(=O)c12 (stereo not shown) [Compound 812]
73 | 256 nM | CCCCc1cc(=O)oc2c1c(=O)[nH]c(=O)n2CF [Compound 813]
74 | 123 nM | O=c1cc(CCCC2CC2)c2c(=O)[nH]c(CF)nc2o1 [Compound 741]
75 | 64 nM | CCn1c(=O)[nH]c2oc(=O)cc(CCC3CCC3)c2c1=O [Compound 783]
76 | 4.8 nM | O=c1[nH]c(=O)c2c(Cc3ccsc3)cc(=O)oc2[nH]1 [Compound 135]
77 | 1230 nM | O=c1cc(CCC2CCCC2)c2c(=O)[nH]c(CF)nc2o1 [Compound 747]
78 | 17 nM | COn1c(=O)[nH]c(=O)c2c(CCC3CCC3)cc(=O)oc21 [Compound 771]
79 | 49.9 nM | CCc1cc(=O)oc2nc(OCC#CC(C)O)[nH]c(=O)c12 (stereo not shown) [Compound 729]
80 | 6.3 nM | C#CCCCc1cc(=O)oc2[nH]c(=O)[nH]c(=O)c12 [Compound 128]
81 | 12 nM | O=c1cc(CCCC2CC2)c2c(=O)n(CF)c(=O)[nH]c2o1 [Compound 802]
82 | 36 nM | O=c1cc(CCC2CC2)c2c(=O)n(C3CCC3)c(=O)[nH]c2o1 [Compound 780]
